Measurements from patent publication US8710089B2, “Triazole derivatives as ghrelin analogue ligands of growth hormone secretagogue receptors” (Zentaris GmbH, priority 2005, dated 2014).

Each compound was assayed against T1, human GHS-R 1a (Homo sapiens, UniProt Q92847) (assay: GHS-R 1a receptor-ligand binding assay (membrane preparations from transfected LLC PK-1 cells)). Conditions: displacement of 125I-His9-ghrelin (60 pM); membranes of LLC PK-1 cells transfected with human GHS-R 1a; mean of at least two independent experiments in triplicates.
T1 construct: expressed in transfected cells; host or cells: LLC PK-1 porcine renal epithelial cells (ECACC No. 86121112), isolated plasma membranes
Procedure: (J. Med. […] Med. Chem. 2003, 46: 1191-1203), were incubated in homogenization buffer HB [50 mM Tris (pH 7.3), 5 mM MgCl2, 2.5 mM EDTA, and 30 μg/mL bacitracin (Sigma)] for 60 min at 25° C. (steady-state conditions) with 60 pM ^125I-[…]-ghrelin (Amersham) in the presence or absence of competing compounds (compounds of the invention). […] Nonspecific binding was defined using an excess (10^-6 M) of ghrelin. The binding reaction was stopped by addition of 4 mL of ice-cold HB followed by rapid filtration over Whatman GP/C filters presoaked with 0.5% polyethyleneimine to prevent excessive binding of radioligand to the filters. […] IC50 values given are the mean of at least two independent experiments performed in triplicates.

T1 sequence (Q92847 whole entry): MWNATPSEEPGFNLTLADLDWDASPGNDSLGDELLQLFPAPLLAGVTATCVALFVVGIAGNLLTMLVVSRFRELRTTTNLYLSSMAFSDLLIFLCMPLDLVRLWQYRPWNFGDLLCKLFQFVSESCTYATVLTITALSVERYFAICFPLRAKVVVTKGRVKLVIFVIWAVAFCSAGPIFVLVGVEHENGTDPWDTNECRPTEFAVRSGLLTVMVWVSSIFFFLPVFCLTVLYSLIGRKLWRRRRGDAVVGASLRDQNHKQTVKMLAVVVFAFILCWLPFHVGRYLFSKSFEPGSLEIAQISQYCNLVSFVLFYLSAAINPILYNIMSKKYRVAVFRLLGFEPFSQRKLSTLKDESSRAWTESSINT

Row | Compound | IC50
1 | COc1ccc(Cn2c(CCc3ccccc3)nnc2[C@@H](Cc2c[nH]c3ccccc23)NC(=O)[C@H]2CCCCN2)c(OC)c1 [compound 63, (R)—N—((R)-1-(4-(2,4-dimethoxybenzyl)-5-phenethyl-4H-1,2,4-triazol-3-yl)-2-(1H-indol-3-yl)ethyl)piperidine-2-carboxamide] | 210 nM
2 | COc1cccc(Cn2c(CCc3c[nH]c4ccccc34)nnc2[C@@H](Cc2c[nH]c3ccccc23)NC(=O)C(C)(C)N)c1 [compound 6, (R)—N-(1-(5-(2-(1H-indol-3-yl)ethyl)-4-(3-methoxybenzyl)-4H-1,2,4-triazol-3-yl)-2-(1H-indol-3-yl)ethyl)-2-amino-2-methylpropanamide] | 18 nM
3 | Cc1ccc(Cn2c(CCc3c[nH]c4ccccc34)nnc2[C@@H](Cc2c[nH]c3ccccc23)NC(=O)C(C)(C)N)cc1 [compound 34, (R)—N-(1-(5-(2-(1H-indol-3-yl)ethyl)-4-(4-methylbenzyl)-4H-1,2,4-triazol-3-yl)-2-(1H-indol-3-yl)ethyl)-2-amino-2-methylpropanamide] | 28 nM
4 | COc1ccc(Cn2c(CCc3c[nH]c4ccccc34)nnc2[C@@H](Cc2c[nH]c3ccccc23)NC(=O)c2ccccn2)c(OC)c1 [compound 73, (R)—N-(1-(5-(2-(1H-indol-3-yl)ethyl)-4-(2,4-dimethoxybenzyl)-4H-1,2,4-triazol-3-yl)-2-(1H-indol-3-yl)ethyl)picolinamide] | 1.8 nM
5 | CCc1ccc(Cn2c(CCc3ccccc3)nnc2[C@@H](Cc2c[nH]c3ccccc23)NC(=O)C2CCNCC2)cc1 [compound 83, (R)—N-(1-(4-(4-ethylbenzyl)-5-phenethyl-4H-1,2,4-triazol-3-yl)-2-(1H-indol-3-yl)ethyl)piperidine-4-carboxamide] | 19 nM
6 | COc1ccc(Cn2c(CCc3ccccc3)nnc2[C@@H](Cc2c[nH]c3ccccc23)NC(=O)C2CCOCC2)cc1 [compound 184, N—((R)-1-(4-(4-methoxybenzyl)-5-phenethyl-4H-1,2,4-triazol-3-yl)-2-(1H-indol-3-yl)ethyl)-tetrahydro-2H-pyran-4-carboxamide] | 5.9 nM
7 | COc1ccc(Cn2c(CCc3c[nH]c4ccccc34)nnc2[C@@H](Cc2c[nH]c3ccccc23)NS(=O)(=O)c2ccc(C)cc2)c(OC)c1 [compound 187, (R)-1-(5-(2-(1H-indol-3-yl)ethyl)-4-(2,4-dimethoxybenzyl)-4H-1,2,4-triazol-3-yl)-2-(1H-indol-3-yl)-N-tosylethanamine] | 66 nM
8 | COc1ccc(Cn2c(CCc3ccccc3)nnc2[C@@H](Cc2c[nH]c3ccccc23)NC(=O)CCc2cccnc2)cc1 [compound 59, (R)—N-(1-(4-(4-methoxybenzyl)-5-phenethyl-4H-1,2,4-triazol-3-yl)-2-(1H-indol-3-yl)ethyl)-3-(pyridin-3-yl)propanamide] | 173 nM
9 | O=C(Cc1ccccn1)N[C@H](Cc1c[nH]c2ccccc12)c1nnc(CCc2c[nH]c3ccccc23)n1Cc1ccccc1 [compound 60, (R)—N-(1-(5-(2-(1H-indol-3-yl)ethyl)-4-benzyl-4H-1,2,4-triazol-3-yl)-2-(1H-indol-3-yl)ethyl)-2-(pyridin-2-yl)acetamide] | 61 nM
10 | CC(C)(N)C(=O)N[C@H](Cc1c[nH]c2ccccc12)c1nnc(Cc2ccccc2)n1Cc1cccc2ccccc12 [compound 4, (R)—N-(1-(5-benzyl-4-(naphthalen-1-ylmethyl)-4H-1,2,4-triazol-3-yl)-2-(1H-indol-3-yl)ethyl)-2-amino-2-methylpropanamide] | 220 nM
11 | COc1ccc(Cn2c(CCc3ccccc3)nnc2[C@@H](Cc2c[nH]c3ccccc23)NC(=O)c2cnccn2)c(OC)c1 [compound 66, (R)—N-(1-(4-(2,4-dimethoxybenzyl)-5-phenethyl-4H-1,2,4-triazol-3-yl)-2-(1H-indol-3-yl)ethyl)pyrazine-2-carboxamide] | 8 nM
12 | COc1ccc(Cn2c(CCc3c[nH]c4ccccc34)nnc2[C@@H](Cc2c[nH]c3ccccc23)NC(=O)C2CCCNC2)c(OC)c1 (stereo partly drawn) [compound 32, (R)—N-(1-(5-(2-(1H-indol-3-yl)ethyl)-4-(2,4-dimethoxybenzyl)-4H-1,2,4-triazol-3-yl)-2-(1H-indol-3-yl)ethyl)piperidine-3-carboxamide] | 10.3 nM
13 | COc1ccc(Cn2c(CCc3ccccc3)nnc2[C@@H](Cc2c[nH]c3ccccc23)NC(=O)[C@@H](N)Cc2ccccc2)cc1 [compound 186, (2S)—N—((R)-1-(4-(4-methoxybenzyl)-5-phenethyl-4H-1,2,4-triazol-3-yl)-2-(1H-indol-3-yl)ethyl)-2-amino-3-phenylpropanamide] | 175 nM
14 | COc1ccc(Cn2c(CCc3ccccc3)nnc2[C@@H](Cc2c[nH]c3ccccc23)NC(=O)[C@@H]2CCCN2)cc1 [compound 46, (S)—N—((R)-1-(4-(4-methoxybenzyl)-5-phenethyl-4H-1,2,4-triazol-3-yl)-2-(1H-indol-3-yl)ethyl)pyrrolidine-2-carboxamide] | 12 nM
15 | CCc1ccc(Cn2c(CCc3ccccc3)nnc2[C@@H](Cc2c[nH]c3ccccc23)NC(=O)C(C)(C)N)cc1 [compound 43, (R)—N-(1-(4-(4-ethylbenzyl)-5-phenethyl-4H-1,2,4-triazol-3-yl)-2-(1H-indol-3-yl)ethyl)-2-amino-2-methylpropanamide] | 44 nM
16 | COc1ccc(Cn2c(CCc3ccccc3)nnc2[C@@H](Cc2c[nH]c3ccccc23)NC(=O)c2cnccn2)cc1 [compound 76, (R)—N-(1-(4-(4-methoxybenzyl)-5-phenethyl-4H-1,2,4-triazol-3-yl)-2-(1H-indol-3-yl)ethyl)pyrazine-2-carboxamide] | 14 nM
17 | COc1ccc(Cn2c(CCc3ccccc3)nnc2[C@@H](Cc2c[nH]c3ccccc23)NC(=O)[C@@H]2C[C@@H](O)CN2)cc1 [compound 40, (2S,4R)—N—((R)-1-(4-(4-methoxybenzyl)-5-phenethyl-4H-1,2,4-triazol-3-yl)-2-(1H-indol-3-yl)ethyl)-4-hydroxypyrrolidine-2-carboxamide] | 249 nM
18 | CCc1ccc(Cn2c(CCc3ccccc3)nnc2[C@@H](Cc2c[nH]c3ccccc23)NC(=O)Cc2ccccn2)cc1 [compound 82, (R)—N-(1-(4-(4-ethylbenzyl)-5-phenethyl-4H-1,2,4-triazol-3-yl)-2-(1H-indol-3-yl)ethyl)-2-(pyridin-2-yl)acetamide] | 51 nM
19 | CC(C)(C)Sc1nnc([C@@H](Cc2c[nH]c3ccccc23)NC(=O)C(C)(C)N)n1Cc1ccco1 [Example 39 from WO 00/54729 A2, (R)—N-(1-(5-(tert-butylthio)-4-(furan-2-ylmethyl)-4H-1,2,4-triazol-3-yl)-2-(1H-indol-3-yl)ethyl)-2-amino-2-methylpropanamide, reference compound] | ~5000 nM
20 | COc1ccc(-n2c(CCc3ccccc3)nnc2[C@@H](Cc2c[nH]c3ccccc23)NC(=O)C2CCNCC2)c(OC)c1 [compound 163, N—((R)-2-(1H-indol-3-yl)-1-(4-(2,4-dimethoxyphenyl)-5-phenethyl-4H-1,2,4-triazol-3-yl)ethyl)piperidine-4-carboxamide] | 63 nM
21 | COc1ccc(-n2c(CCc3ccccc3)nnc2[C@@H](Cc2c[nH]c3ccccc23)NC(=O)c2ccccn2)c(OC)c1 [compound 159, N—((R)-2-(1H-indol-3-yl)-1-(4-(2,4-dimethoxyphenyl)-5-phenethyl-4H-1,2,4-triazol-3-yl)ethyl)picolinamide] | 33 nM
22 | COc1ccc(Cn2c(CCc3c[nH]c4ccccc34)nnc2[C@@H](Cc2c[nH]c3ccccc23)NC(=O)CN)cc1 [compound 152, N—((R)-1-(5-(2-(1H-indol-3-yl)ethyl)-4-(4-methoxybenzyl)-4H-1,2,4-triazol-3-yl)-2-(1H-indol-3-yl)ethyl)-2-aminoacetamide] | 138 nM
23 | CC(C)(N)C(=O)N[C@H](Cc1c[nH]c2ccccc12)c1nnc(CCCc2c[nH]c3ccccc23)n1CCc1ccccc1 [compound 3, (R)—N-(1-(5-(3-(1H-indol-3-yl)propyl)-4-phenethyl-4H-1,2,4-triazol-3-yl)-2-(1H-indol-3-yl)ethyl)-2-amino-2-methylpropanamide] | 14 nM
24 | COc1ccc(Cn2c(CCc3c[nH]c4ccccc34)nnc2[C@@H](Cc2c[nH]c3ccccc23)NC(=O)CN)c(OC)c1 [compound 69, (R)—N-(1-(5-(2-(1H-indol-3-yl)ethyl)-4-(2,4-dimethoxybenzyl)-4H-1,2,4-triazol-3-yl)-2-(1H-indol-3-yl)ethyl)-2-aminoacetamide] | 38 nM
25 | O=C(N[C@H](Cc1c[nH]c2ccccc12)c1nnc(CCc2ccccc2)n1-c1ccccc1)c1ccccn1 [compound 146, N—((R)-2-(1H-indol-3-yl)-1-(5-phenethyl-4-phenyl-4H-1,2,4-triazol-3-yl)ethyl)picolinamide] | 105 nM
26 | COc1ccc(Cn2c(CCc3ccccc3)nnc2[C@@H](Cc2c[nH]c3ccccc23)NC(=O)C(C)(C)N)c(OC)c1 [compound 179, N—((R)-1-(4-(2,4-dimethoxybenzyl)-5-phenethyl-4H-1,2,4-triazol-3-yl)-2-(1H-indol-3-yl)ethyl)-2-amino-2-methylpropanamide] | 62 nM
27 | CCc1ccc(-n2c(CCc3c[nH]c4ccccc34)nnc2[C@@H](Cc2c[nH]c3ccccc23)NC(=O)Cc2ccccn2)cc1 [compound 148, N—((R)-1-(5-(2-(1H-indol-3-yl)ethyl)-4-(4-ethylphenyl)-4H-1,2,4-triazol-3-yl)-2-(1H-indol-3-yl)ethyl)-2-(pyridin-2-yl)acetamide] | 96 nM
28 | COc1ccc(Cn2c(CCc3ccccc3)nnc2[C@@H](Cc2c[nH]c3ccccc23)NC(=O)C2CNCCN2)c(OC)c1 (stereo partly shown) [compound 67] | 35 nM
